# In US11266710B2, “Angio-3 for treatment of retinal angiogenic diseases” (SINGAPORE HEALTH SERVICES PTE LTD, priority 2017, dated 2022):
# Where no end group is shown, it is not given here. [ ]: non-standard residue; d: D form. hArg = N=C(N)NCCCC[C@H](N)C(=O)O
# What was measured:
# [1] = tested on: laser-induced CNV in C57/BL6J (B6J) wild type mice; assay: Laser-induced choroidal neovascularization (CNV) model in mice, area of leakage by FFA; format: in vivo; details: for Area of Leakage (mean) Week 1 / Area of Leakage (mean) Week 4: laser-induced CNV mice; for Area of Leakage (mean) Week 1 / Area of Leakage (mean) Week 4 / choroidal angiogenesis: prevention mode; for % Reduction (area of leakage): vehicle control = 0%; for choroidal angiogenesis: B6J mice, single intravitreal injection at dose 100 ng, 1 g, and 5 μg
# Procedure: FIG. 3A is a schematic of the experimental design on the efficacy of Angio-3 in a laser-induced choroidal neovascularization (CNV) model in mice (B6J WT mice). FIG. 3B are FFA images of baseline and at different time points post treatment. IV single injection of 100 μL of Angio-3 (25 mg/Kg Bwt) was given at Day 0 (prevention mode) and 4 days after laser (regression mode) and followed for 10 weeks. FIG. 3C is a graph showing the area of leakage by each eye for various groups. FIG. 3D are graphs of the mean area of leakage of all batches for each group. […] The attenuation retinal vascularization was better than scrambled peptide. n=6 eyes per batch; n=3 batches. Values are expressed as means±s.e.m., **P<0.01, *P<0.05, student's t-test. FIG. 3E is a graph of the result of the Retinal Function Test that measures ERG changes in Angio-3 treated and control.
# FIG. 4A is a schematic of the experimental design on the efficacy of Angio-3 by IVT administration. […]
# FIG. 11 A are FFA images of baseline and at different time points post treatment. Mice received single IVT injection of Angio-3 (at a dose of 1 μg in 1 μl or 100 ng in 1 μl), and chemically modified Angio-3 peptides Pep-N (at doses of 5 μg in μl; 1 μg in μl; and 100 ng in 1 μl, respectively) and Pep-Q peptides (at doses of 5 μg in μl; 1 μg in μl; and 100 ng in 1 μl, respectively). FIG. 11 B is a graph of the area of leakage by each eye. Single dose attenuates retinal angiogenesis in laser-induced mice CNV model via IVT route till 4 weeks. […] Eylea is the positive control. n=18 eyes per group; Values are expressed as means±s.e.m. n=3 independent experiment, **P<0.01, *P<0.05, student's t-test.
# Laser induced choridal neo-vascularization (CNV) in C57/BL6J (B6J) wild type mice (n=90).
# In B6J mice, single injection of 100 μl volume at 25 mg/kg Bwt concentration Angio-3 was injected via intravenous (i/v) route and this was tested in both Preventive mode (before laser) and Regression mode (4 days after laser). […]
# Angio-3 was also injected via intravitreal (IVT) route, single injection of 1 μl volume at 2 different doses; 1 μg (High dose) and 100 ng (Low dose).
# 4 laser photocoagulation sites were placed concentrically around the optic disc of both eyes to induce CNVs. A diode laser (810 nm) was used with a relative potency scale of 120 mW for mice and 250 mW for rats, an exposure time of 0.05 s, and a spot size of […]. Laser spots were focused with crystal covers to avoid laser beam dispersion. Bubble formation was confirmed the rupture of Bruch's membrane.
# Fundus photography and fundus fluorescein angiography (FFA) was imaged using a MICRON IV fundus camera (Phoenix Laboratories USA). For FFA, animals were intraperitoneally injected with 10% sodium fluorescein at a dose of 0.01 ml per 5-6 gm body weight.
# In B6J mice, single intravitreous (IVT) injection of 100 ng, 1 μg, 5 μg PEP-Q, PEP-N (modified Angio-3), Angio-3 and Eylea were executed and this was tested in Prevention mode (before laser) Method of Llser induced CNV model and injection was described as above.
# [2] = tested on: corneal neovascularization after alkali-burn injury in mice; assay: Corneal neovascularization after alkali-burn injury in mice; format: in vivo, mouse; details: 1% solution topically 3×/day for 7 days; vs vehicle control
# Procedure: Mice were anesthetized with the combination of 80 mg/kg ketamine and 5 mg/kg xylazine. One drop of 1% xylocaine was applied to the corneal surface for local analgesia. Round piece of filter paper, approximately 2 mm in diameter was soaked in a solution of 1 M NaOH. A piece of NaOH soaked filter paper was picked by sterile forceps. NAOH soaked filter paper was placed on the central cornea under microscope to ensure properly placing the filter paper. Left it for 30 sec to generate an acute alkali-burn of approximately 2×2 mm^2 in area. Filter paper was removed and then gently flushed the eye with 10 ml of 1×PBS twice to wash away residual 1 M NaOH. Only one eye of the mouse was injured and the other serving as a control. A drop of 1× Peptide Q (1% solution as test compound) or a vehicle control consisting of PBS was topically applied to the cornea. Repeated application occurred 3×/day for 7 days. At end point, clinical assessment was done as stated below and eyes were enucleated for corneal flat mount.
# A daily examination of the mice in a blinded fashion was performed under a surgical microscope and score corneal neo-vascularization (NV) was based on corneal opacity, NV and vessel size. Two observers were scored and record a final score that was the average of the two. Score corneal opacity on a scale of 0-4. […]
# [3] = tested on: laser-induced CNV in Cynomolgus monkeys; assay: Laser-induced CNV model in Cynomolgus monkeys (wet AMD model); format: in vivo, Cynomolgus monkey; details: 2 mg Angio-3, 2 mg and 4 mg PeptideQ, 2 mg Eylea, single IVT
# Procedure: FIGS. 25A, 25B, 25C, 25D, 25E, and 25F show the results of testing in a laser-induced chorodial neovascularization (CNV) model in Cynomolgus moneys developed as an experimental model of wet AMD. FIG. 25A is a schematic of the study design. FIG. 25B are representative fundus fluorescein angiography (FFA) images of all groups. FIG. 25C is a graph showing change in mean lesion grade of the eye in monkeys treated with a single dose 2 mg of Angio-3, dose 2 mg of anti-VEGF (Eylea), 2 mg of peptide (Q2) and 4 mg of peptide (Q4) and control. […] FIG. 25E is a graph of laser area quantified from the FFA images by ImageJ software. FIG. 25F are graphs of laser volume quantified from PS-OCT images by ImageJ software.
# A laser-induced choroidal neovascularization (CNV) model was developed and validated in Cynomolgus monkeys as experimental model of wet AMD. […] The development of active CNV was assessed by fluorescein angiography, at Day 14 the baseline degree of neovascularization and leakiness were measured and the final fluorescein angiography assessment was performed on Day 28. Leakage area was quantified by ImageJ software. The laser volume was quantified by Spectralis-Heidelberg software using SD-OCT images.
# HRMEC cells [4] = assay: HRMEC transwell migration assay; format: cell-based; details: 300 μg/ml; 50 ng/ml VEGF165; overnight
# Procedure: Transwell migration assays were performed in a 24-well cells culture plate containing 8.0 μm pore size inserts. HRMEC cells were serum starved overnight prior of assay. The lower chamber were filled with EBM-2, EBM-2 supplemented with 50 ng/ml VEGF165 plus different concentrations of inhibitors. 1×10^5 Cells in EBM-2 were seeded in the upper chamber. Cells were allowed to migrate to the other side of membrane for overnight at 37° C. Cells on top of the membrane were wiped off and cells migrated to the other side were fixed and stained with 0.4% crystal violet. Cell numbers were counted under a 10× objective for 5 randomly selected fields.
# HRMEC cells [5] = assay: VEGF induced proliferation of HRMEC cells (Alamar-Blue); format: cell-based; details: 300 μg/ml; 10 ng/ml or 50 ng/ml VEGF165; 3 days
# Procedure: 2000 HRMEC cells were seeded in 96-well plates in 100 μl of media and placed in a CO2 incubator at 37° C. To evaluate the effect the compounds have on VEGF-induced HRMEC proliferation, cells were treated with 10 ng/ml VEGF165 or 50 ng/ml VEGF165 in the presence of different concentrations of Angio-3 after serum starved in EBM-2 supplemented with 0.5% FBS overnight. 300 μg/ml Avastin was used as a positive control. Alamar-Blue assay was performed after 3 days of treatment.
Substance,Area of Leakage (mean) Week 1 ([1]; 100 ng single IVT),Area of Leakage (mean) Week 4 ([1]; 100 ng single IVT),% Reduction (area of leakage) ([1]; 100 ng single IVT),Area of Leakage (mean) Week 1 ([1]; 1 μg single IVT),Area of Leakage (mean) Week 4 ([1]; 1 μg single IVT),% Reduction (area of leakage) ([1]; 1 μg single IVT),Area of Leakage (mean) Week 1 ([1]; 5 μg single IVT),Area of Leakage (mean) Week 4 ([1]; 5 μg single IVT),% Reduction (area of leakage) ([1]; 5 μg single IVT),choroidal angiogenesis [1],corneal NV area seven days after alkali-burn injury [2],comparative efficacy between treatment groups [3],VEGF induced HRMEC migration (HRMEC cells [4]),VEGF induced HRMEC proliferation (HRMEC cells [5])
"Thr Pro His Thr His Asn Xaa Thr Pro Glu, wherein Xaa is homoarginine (TPHTHN[hArg]TPE) [PEP-N, chemically modified Angio-3 peptide]",11287.40,2237.13,42.00%,12808.95,2402.54,43.06%,8251.43,749.71,52.73%,significantly attenuates the choroidal angiogenesis,–,–,–,–
"Thr Pro His Thr His Gln Xaa Thr Pro Glu, wherein Xaa is homoarginine (TPHTHQ[hArg]TPE) [PEP-Q, chemically modified Angio-3 peptide]",9987.09,1283.52,48.96%,13444.14,1271.30,52.36%,12839.27,742.03,56.04%,significantly attenuates the choroidal angiogenesis,significantly reduced corneal NV area,dose dependent efficacy and higher dose efficacy close to Eylea,–,–
bevacizumab [Avastin],–,–,–,–,–,–,–,–,–,–,–,–,completely blocked,sufficient to inhibit VEGF induce proliferation
